Results on 26 molecules are retold here after patent US6242494A, “Substituted β-amino acid inhibitors of methionine aminopeptidase-2” (Abbott Laboratories, priority 1999, dated 2001).

The assay deals with T1, methionine aminopeptidase-2 (MetAP2) (Homo sapiens, UniProt P50579).
T1 construct: made in house; host or cells: insect cells, baculovirus system (secreted, purified from culture supernatant)
Nature of the assay: Inhibition of MetAP2 enzyme activity (96-well, Met-Ala-Ser substrate, L-amino acid oxidase/peroxidase/ortho-dianisidine, 450 nm). The assay is classed as biochemical. The following applies: IC50, recombinant MetAP2 4 μg/mL, pH 7.4, Met-Ala-Ser substrate, 20 minutes. The procedure:
The ability of compounds of the present invention to inhibit methionine aminopeptidase 2 was evaluated using the following assay.
Assays for MetAP2 enzyme activity and MetAP2 inhibition were performed in 96-well microtiter plates. Compounds to be tested for MetAP2 inhibition were dissolved in dimethyl-sulfoxide at 10 mM and diluted ten-fold in assay buffer ([…], pH 7.4, 100 mM NaCl). Ten microliters of solution of each compound to be tested for inhibition were introduced into each cell of the plate, with each compound being tested in triplicate.
The absorbence at 450 nanometers was measured every 20 seconds over a period of twenty minutes using an automaic plate reader (Molecular Devices, CA, USA). The Vmax in mOD/min, calculated for each well was used to represent MetAP2 activity. The IC50 for each inhibitor was obtained by plotting the remaining MetAP2 activity versus inhibitor concentration.

Structures can show the parent of a compound that is named as a salt.

T1 sequence (P50579 whole entry): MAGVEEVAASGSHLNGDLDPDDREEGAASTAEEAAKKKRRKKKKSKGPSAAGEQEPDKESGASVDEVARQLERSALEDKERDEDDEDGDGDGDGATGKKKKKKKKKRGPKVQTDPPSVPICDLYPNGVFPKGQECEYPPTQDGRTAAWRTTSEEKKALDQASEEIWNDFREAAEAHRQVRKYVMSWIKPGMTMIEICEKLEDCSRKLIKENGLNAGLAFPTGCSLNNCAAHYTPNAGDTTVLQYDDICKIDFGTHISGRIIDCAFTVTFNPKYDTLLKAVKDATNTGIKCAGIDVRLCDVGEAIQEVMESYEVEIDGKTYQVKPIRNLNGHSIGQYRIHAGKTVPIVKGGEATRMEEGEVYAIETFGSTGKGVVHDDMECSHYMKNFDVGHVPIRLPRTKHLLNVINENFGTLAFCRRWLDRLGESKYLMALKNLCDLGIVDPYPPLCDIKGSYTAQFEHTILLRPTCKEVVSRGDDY

The IC50 is the point on the concentration scale where inhibition reaches its midpoint. As for `CCOc1ccc(OCC)c(NC(=O)C(O)[C@H](N)CC2CCCCC2)c1` (mixture of isomers) [Example 181, (2RS,3R)-3-amino-4-cyclohexyl-N-(2,5-diethoxyphenyl)-2-hydroxybutanamide hydrochloride], the IC50 came to 9.8 µM. Turning to `COc1ccc(C(C)(C)C)cc1NC(=O)C(O)[C@H](N)CC1CCCCC1` (mixture of isomers) [Example 182, (2RS,3R)-3-amino-N-(5-(tert-butyl)-2-methoxyphenyl)-4-cyclohexyl-2-hydroxybutanamide hydrochloride], the IC50 turned out to be 8 µM. Next, `N[C@H](CC1CCCCC1)C(O)C(=O)Nc1ccccc1Oc1ccccc1` (mixture of isomers) [Example 183, (2RS,3R)-3-amino-4-cyclohexyl-2-hydroxy-N-(2-phenoxyphenyl)butanamide hydrochloride]: 8.7 µM; `Cc1ccc([N+](=O)[O-])cc1NC(=O)C(O)[C@H](N)CC1CCCCC1` (mixture of isomers) [Example 184, (2RS,3R)-3-amino-4-cyclohexyl-2-hydroxy-N-(2-methyl-5-nitrophenyl)butanamide hydrochloride]: 0.43 µM. Next, `N[C@H](CC1CCCCC1)C(O)C(=O)Nc1ccc(Oc2ccccc2)cc1` (mixture of isomers) [Example 185, (2RS,3R)-3-amino-4-cyclohexyl-2-hydroxy-N-(4-phenoxyphenyl)butanamide hydrochloride]: 1.8 µM; `COc1ccc(CNC(=O)C(O)[C@H](N)CC2CCCCC2)cc1` (mixture of isomers) [Example 186, (2RS,3R)-3-amino-4-cyclohexyl-2-hydroxy-N-(4-methoxybenzyl)butanamide hydrochloride]: 1.1 µM. The same measure for `Cc1ccc(CNC(=O)C(O)[C@H](N)CC2CCCCC2)cc1` (mixture of isomers) [Example 187, (2RS,3R)-3-amino-4-cyclohexyl-2-hydroxy-N-(4-methylbenzyl)butanamide hydrochloride]: 1.2 µM; for `N[C@H](CC1CCCCC1)C(O)C(=O)NCc1cccc(Cl)c1` (mixture of isomers) [Example 188, (2RS,3R)-3-amino-N-(3-chlorobenzyl)-4-cyclohexyl-2-hydroxybutanamide hydrochloride]: 1.6 µM; for `COc1cccc(CNC(=O)C(O)[C@H](N)CC2CCCCC2)c1` (mixture of isomers) [Example 189, (2RS,3R)-3-amino-4-cyclohexyl-2-hydroxy-N-(3-methoxybenzyl)butanamide hydrochloride]: 1.5 µM.

`N[C@H](CC1CCCCC1)C(O)C(=O)NCc1ccc(Br)cc1` (mixture of isomers) [Example 190, (2RS,3R)-3-amino-N-(4-bromobenzyl)-4-cyclohexyl-2-hydroxybutanamide hydrochloride]: the IC50 came to 1.3 µM. Next, `Cc1cccc(CNC(=O)C(O)[C@H](N)CC2CCCCC2)c1` (mixture of isomers) [Example 191, (2RS,3R)-3-amino-4-cyclohexyl-2hydroxy-N-(3-methylbenzyl)butanamide hydrochloride]: 2.5 µM; `N[C@H](CC1CCCCC1)C(O)C(=O)NCCc1ccccc1` (mixture of isomers) [Example 192, (2RS,3R)-3-amino-4-cyclohexyl-2-hydroxy-N-phenethylbutanamide hydrochloride]: 1.2 µM. Regarding `N[C@H](CC1CCCCC1)C(O)C(=O)NCc1ccc(Cl)cc1` (mixture of isomers) [Example 193, (2RS,3R)-3-amino-N-(4-chlorobenzyl)-4-cyclohexyl-2-hydroxybutanamide hydrochloride], the IC50 was found to be 2.5 µM. The same measure for `Cc1ccc(CCNC(=O)C(O)[C@H](N)CC2CCCCC2)cc1` (mixture of isomers) [Example 194, (2RS,3R)-3-amino-4-cyclohexyl-2-hydroxy-N-(4-methylphenethyl)butanamide hydrochloride]: 1.4 µM; for `COc1ccc(CCNC(=O)C(O)[C@H](N)CC2CCCCC2)cc1` (mixture of isomers) [Example 195, (2RS,3R)-3-amino-4-cyclohexyl-2-hydroxy-N-(4-methoxyphenethyl)butanamide hydrochloride]: 1.3 µM; for `COc1cccc(CCNC(=O)C(O)[C@H](N)CC2CCCCC2)c1` (mixture of isomers) [Example 196, (2RS,3R)-3-amino-4-cyclohexyl-2-hydroxy-N-(3-methoxyphenethyl)butanamide hydrochloride]: 0.82 µM. Next, `COc1ccccc1CCNC(=O)C(O)[C@H](N)CC1CCCCC1` (mixture of isomers) [Example 197, (2RS,3R)-3-amino-4-cyclohexyl-2-hydroxy-N-(2-methoxyphenethyl)butanamide hydrochloride]: 0.58 µM; `N[C@H](CC1CCCCC1)C(O)C(=O)NCCc1ccc(Cl)cc1` (mixture of isomers) [Example 198, (2RS,3R)-3-amino-N-(4-chlorophenethyl)-4-cyclohexyl-2-hydroxybutanamide hydrochloride]: 0.84 µM; `N[C@H](CC1CCCCC1)C(O)C(=O)NCCc1cccc(Cl)c1` (mixture of isomers) [Example 199, (2RS,3R)-3-amino-N-(3-chlorophenethyl)-4-cyclohexyl-2-hydroxybutanamide hydrochloride]: 1 µM. Next, `N[C@H](CC1CCCCC1)C(O)C(=O)NCCc1cccc(C(F)(F)F)c1` (mixture of isomers) [Example 200, (2RS,3R)-3-amino-4-cyclohexyl-2-hydroxy-N-(3-(trifluoromethyl)phenethyl)butanamide Hydrochloride]: 1.5 µM; `N[C@H](CC1CCCCC1)C(O)C(=O)NCCc1ccc(Br)cc1` (mixture of isomers) [Example 201, (2RS,3R)-3-amino-N-(4-bromophenethyl)-4-cyclohexyl-2-hydroxybutanamide Hydrochloride]: 0.71 µM. `N[C@H](CC1CCCCC1)C(O)C(=O)NC12CC3CC(CC(C3)C1)C2` (mixture of isomers) [Example 202, (2RS,3R)-N-(1-adamantyl)-3-amino-4-cyclohexyl-2-hydroxybutanamide Hydrochloride]: the IC50 came to 8.3 µM. The same measure for `N[C@H](CC1CCCCC1)C(O)C(=O)NC1C2CC3CC(C2)CC1C3` (mixture of isomers) [Example 203, (2RS,3R)-N-(2-adamantyl)-3-amino-4-cyclohexyl-2-hydroxybutanamide Hydrochloride]: 4.9 µM. The same measure for `N[C@H](CC1CCCCC1)C(O)C(=O)NC1CCCCCC1` (mixture of isomers) [Example 204, (2RS,3R)-3-amino-N-cycloheptyl-4-cyclohexyl-2-hydroxybutanamide Hydrochloride]: 3.8 µM. Next, `N[C@H](CC1CCCCC1)C(O)C(=O)NCC1CCCCC1` (mixture of isomers) [Example 205, (2RS,3R)-3-amino-4-cyclohexyl-N-(cyclohexylmethyl)-2-hydroxybutanamide Hydrochloride]: 2.5 µM; `N[C@H](CC1CCCCC1)C(O)C(=O)NC1CCCCC1` (mixture of isomers) [Example 206, (2RS,3R)-3-amino-N,4-dicyclohexyl-2-hydroxybutanamide Hydrochloride]: 10 µM.
